Broadly, the TGI is the concentration at which net growth stops. A high value points to less potent growth arrest.

The record followed here is PubChem BioAssay (NCI).

Some test systems named below: M14 melanoma; K-562 leukemia; UO-31 renal; SK-OV-3 ovarian; UACC-62 melanoma; OVCAR-8 ovarian; A498 renal; U251 CNS; OVCAR-4 ovarian; PC-3 prostate; HS 578T breast; MDA-N.
Common to all, as to test: DTP human tumour cell line panel, 48 h

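48-hour exposure; five concentrations; linearly interpolated endpoints. TGI: total growth inhibition.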 Where a SMILES comes first, the peptide text is derived from it. The star is where a group is joined. Boc = CC(C)(C)OC(=O)*; OBn = c1ccc(CO*)cc1; Bn = c1ccc(C*)cc1

Consider `CC(C)(C)NNc1c([N+](=O)[O-])cnn(-c2ccccc2)c1=O`, for which the TGI with M14 melanoma stood at 4.88 µM; in the assay on K-562 leukemia, 2.02 µM; in the assay with UO-31 renal it was 12.8 µM; in the assay on SK-OV-3 ovarian, 16 µM; with UACC-62 melanoma, 9.39 µM; in the assay with OVCAR-8 ovarian it was 4.74 µM. Also, the concentration for total growth inhibition (TGI) in the assay with A498 renal is more than 100 µM; with U251 CNS, 8.05 µM; in the assay on OVCAR-4 ovarian, 6.61 µM; in the assay on PC-3 prostate it was 3.23 µM; with HS 578T breast, 26.1 µM.

For the molecule `COC(=O)CCCc1ccc2c(c1)CCC2`, the TGI in the assay with M14 melanoma, with UO-31 renal, in the assay with MDA-N, in the assay on SK-OV-3 ovarian, in the assay with UACC-62 melanoma and with OVCAR-8 ovarian was more than 100 µM each time. Also, the total growth inhibition concentration (TGI) in the assay on U251 CNS, in the assay with OVCAR-4 ovarian, in the assay with PC-3 prostate and in the assay with HS 578T breast was more than 100 µM in each case.

With `CCOC(=O)/C(O)=C(\C=N\C(=S)Nc1ccc(Cl)c(Cl)c1)C(=O)OCC`, the TGI in the assay on M14 melanoma, in the assay with UO-31 renal, in the assay on MDA-N, with SK-OV-3 ovarian, in the assay with UACC-62 melanoma and with OVCAR-8 ovarian was more than 100 µM throughout. Further, the concentration for total growth inhibition (TGI) in the assay on U251 CNS, in the assay on OVCAR-4 ovarian, in the assay on PC-3 prostate and with HS 578T breast was more than 100 µM each time.

`COc1ccccc1NC(=S)N/N=C(/c1ccccc1)c1ccccn1`: the concentration for total growth inhibition (TGI) in the assay on M14 melanoma worked out at 9.52 µM; with UO-31 renal it was 14.1 µM; in the assay with MDA-N it was 21.5 µM; with SK-OV-3 ovarian, 13.8 µM; in the assay with UACC-62 melanoma it was 9.23 µM; in the assay on OVCAR-8 ovarian, 10.5 µM. Moreover, the TGI in the assay on A498 renal was determined as 12.5 µM; in the assay on U251 CNS, 14.9 µM; in the assay on OVCAR-4 ovarian it was 19.3 µM; in the assay on PC-3 prostate, 16.7 µM; in the assay on HS 578T breast, 53.9 µM.

On to `CC(C)(C)[Si](C)(C)OCC1OC(n2ccc(=O)[nH]c2=O)C(O[Si](C)(C)C(C)(C)C)/C1=N/O` (stereo unspecified), for which the concentration for total growth inhibition (TGI) with M14 melanoma is 12 µM; in the assay with K-562 leukemia, 15.7 µM; with UO-31 renal it was 14.5 µM; in the assay with MDA-N, more than 36.2 µM; in the assay with SK-OV-3 ovarian, 26 µM; with UACC-62 melanoma, 24.8 µM. Moreover, the concentration for total growth inhibition (TGI) in the assay on OVCAR-8 ovarian stood at 13.9 µM; with A498 renal it was 16.5 µM; in the assay with U251 CNS, 23.4 µM; with OVCAR-4 ovarian it was 17.8 µM; in the assay on PC-3 prostate, 13.7 µM.

With `CCCCc1ccc(N2C(=O)c3cc(C)cnc3S2(=O)=O)cc1`, the TGI with M14 melanoma, with K-562 leukemia, with UO-31 renal, in the assay on MDA-N, in the assay with SK-OV-3 ovarian and in the assay with OVCAR-8 ovarian was more than 100 µM throughout. Besides, the TGI in the assay with U251 CNS, in the assay with OVCAR-4 ovarian, with PC-3 prostate and in the assay on HS 578T breast was more than 100 µM in each case.

On to `CC(C)CC(NC(=O)C(Cc1ccccc1)NC(=O)C(COCc1ccccc1)NC(=O)OC(C)(C)C)C(=O)OCc1ccccc1` (stereo not drawn) (Boc-Ser(Bn)-Phe-Leu-OBn; configuration not given here), for which the concentration for total growth inhibition (TGI) with M14 melanoma was more than 100 µM; with K-562 leukemia, 45.2 µM; in the assay with UO-31 renal, more than 100 µM; in the assay on MDA-N, more than 100 µM; in the assay on SK-OV-3 ovarian it was more than 100 µM; with UACC-62 melanoma, 33 µM. For the same molecule, the TGI with OVCAR-8 ovarian was 34.6 µM; in the assay on A498 renal, more than 100 µM; in the assay with U251 CNS, 53.2 µM; in the assay on OVCAR-4 ovarian, more than 100 µM; in the assay with PC-3 prostate, 57.6 µM.

Turning to `CC(C)(C)[C@@H]1NC(=O)CN1C(=O)OCc1ccccc1`, the total growth inhibition concentration (TGI) in the assay with M14 melanoma, in the assay with K-562 leukemia, in the assay on UO-31 renal, in the assay on SK-OV-3 ovarian, with UACC-62 melanoma and with OVCAR-8 ovarian was more than 100 µM in each case. For the same molecule, the TGI in the assay on A498 renal, in the assay with U251 CNS, with OVCAR-4 ovarian, in the assay on PC-3 prostate and with HS 578T breast was more than 100 µM throughout.

Turning to `Cc1cccc(Nc2cn(CCOc3ccccc3)c(=O)[nH]c2=O)c1`, the TGI in the assay with M14 melanoma, with K-562 leukemia, in the assay with UO-31 renal, with MDA-N, in the assay on UACC-62 melanoma and with A498 renal was more than 100 µM throughout. The total growth inhibition concentration (TGI) with U251 CNS was more than 100 µM; in the assay with OVCAR-4 ovarian, more than 100 µM; in the assay with PC-3 prostate, 72.3 µM; in the assay on HS 578T breast, more than 100 µM.

Regarding `c1ccc(/C(=N/Nc2cnccn2)c2ncccn2)cc1`, the TGI in the assay on M14 melanoma, with K-562 leukemia, with UO-31 renal, in the assay on MDA-N, with SK-OV-3 ovarian and in the assay on UACC-62 melanoma was more than 100 µM each time. Moreover, the concentration for total growth inhibition (TGI) in the assay on OVCAR-8 ovarian, with U251 CNS, in the assay on OVCAR-4 ovarian, in the assay on PC-3 prostate and in the assay on HS 578T breast was more than 100 µM in each case.

Take `CC(=O)C1=CC=C/C1=N\Nc1ccccc1`: the total growth inhibition concentration (TGI) with M14 melanoma is 22.7 µM; with K-562 leukemia, 20.5 µM; with UO-31 renal, 25.8 µM; with MDA-N it was 19.2 µM; in the assay with SK-OV-3 ovarian, 30.7 µM; in the assay with UACC-62 melanoma, 28.7 µM. Moreover, the TGI is 64.4 µM with OVCAR-8 ovarian; 9.36 µM in the assay with U251 CNS; 20.1 µM in the assay on OVCAR-4 ovarian; 18.7 µM with PC-3 prostate; 34.9 µM in the assay on HS 578T breast.

For the molecule `CC(C)C[C@H](NC(=O)[C@@H](Cc1cccc2ccccc12)NC(=O)N1CCOCC1)B(O)O`, the total growth inhibition concentration (TGI) with M14 melanoma turned out to be 10.8 µM; with K-562 leukemia it was 46.6 µM; with UO-31 renal, 41.5 µM; in the assay with SK-OV-3 ovarian, 40.6 µM; with UACC-62 melanoma, 16 µM; in the assay with OVCAR-8 ovarian, 44.9 µM. The TGI with A498 renal is 18.1 µM; with U251 CNS, 17.7 µM; with OVCAR-4 ovarian it was more than 57.8 µM; in the assay on PC-3 prostate, 24.9 µM; in the assay with HS 578T breast, more than 25.6 µM.

As for `COC(=O)CSc1[nH]c2nc(C)nc(Nc3ccccc3)c2c1C#N`, the TGI in the assay with M14 melanoma, in the assay on K-562 leukemia, in the assay on MDA-N, in the assay with SK-OV-3 ovarian, in the assay with UACC-62 melanoma and with OVCAR-8 ovarian was more than 10 µM in each case. In addition, the total growth inhibition concentration (TGI) in the assay on OVCAR-4 ovarian and in the assay on PC-3 prostate was more than 10 µM each time.
